Assay results as given in patent US20120328526A1, “Modulation of Nad+ Activity in Neuropathophysiological Conditions and Uses Thereof” (University of Maryland, Baltimore, priority 2011, published 2012).
Entries after “also recorded” stand apart in the source; their conditions may differ.

Assays:
[1] = tested on: neurons in the CA1 sector of the hippocampus; experiment: Forebrain ischemia model, histological outcome in the CA1 sector of the hippocampus; format: in vivo, mouse
Procedure: FIGS. 1A-1B show effects of nicotinamide mononucleotide administration. FIG. 1A: Fluoro-Jade B staining of the hippocampal formation of mouse brain subjected to 10 min forebrain ischemia and 5 days of recovery. The middle panels represent enlarged views of the CA1 sector, the CA2-3 border, and DG. Note the high number of degenerating, Fluoro-Jade B positive cells in the CA1 pyramidal cell layer. There are only a few cells stained in the CA3 region, and some cells are stained in the DG. […] Open bars represent average values.
In all groups male, 3 months old animals were used.
C57BL/6 male mice, weighing 20-25 g were used. Mice were fasted overnight with free access to water ad libitum. Animals were anesthetized with 3.5% isoflurane in 70% N2O and 30% O2 and the trachea were intubated with a 20-guage intravenous catheter. Anesthesia was maintained using 1.5% isoflurane in N2O:O2 (70:30) and the lungs were mechanically ventilated at a rate of 120 breaths per min and the tidal volume was adjusted to give normal physiological values of blood gases (34-38 mm Hg pCO2 and […] of pO2). The common carotid arteries was isolated via a neck incision and encircled with loose ligatures for later clamping. Rectal temperature was routinely monitored before, during and after ischemia. A subcutaneous needle thermistor was placed adjacent to the skull. The body and head temperature was maintained at 37.0±0.5° C. by a homeothermic-heating pad and heating lamp.
Two minutes before the common carotid arteries are clamped, the isoflurane concentration will be increased to 5%. […]
Every sixth […] section located between 1.7 and 2.6 mm posterior to bregma (0 mm, 180 mm, 360 mm, 540 mm, 720 mm, 900 mm; 6 sections), which comprises the dorsal hippocampus, was stained with IBA1 antiserum and cresyl violet and used for estimating the total microglial number with distinct morphology and neuronal numbers of normal and dying neurons in the different hippocampal regions. […] Parallel sections were immuno-stained with GFAP antibody and the number of distinct astrocytes were counted in the same hippocampal area. GFAP-immunoreactive cells were classified into three categories: normal, moderate, and intensely activated astrocytes, based on morphological characteristics as assessed by visual inspection (23).
Quantitative analysis is performed on a computer-assisted image analysis system consisting of a Nikon Eclipse 800 photomicroscope equipped with a computer-controlled motorized stage, and a computer running Stereolnvestigator program, a custom-designed morphology and stereology software (27). Cell numbers were quantified according to the optical fractionator method. […]
For quantification of uninjured cells within the CA1 sector of the hippocampus an unbiased stereological technique was used (27). […]

[2] = molecular target: T1, CD38 NAD^+ glycohydrolase (Mus musculus, UniProt P56528); experiment: NAD+ glycohydrolase activity (1-etheno-NAD hydrolysis) in brain region homogenates; format: biochemical; conditions: NMN 1 mM; post-ischemic brain subregion supernatant
T1 construct: The individual brain regions were homogenized and centrifuged at low speed to sediment the unbroken cells and the nuclear fraction; from tissue; host or cells: mouse (C57BL/6) brain regions (cortex, striatum, hippocampal CA1, CA3-DG), low-speed supernatant of homogenate
T1 sequence (P56528 1-304): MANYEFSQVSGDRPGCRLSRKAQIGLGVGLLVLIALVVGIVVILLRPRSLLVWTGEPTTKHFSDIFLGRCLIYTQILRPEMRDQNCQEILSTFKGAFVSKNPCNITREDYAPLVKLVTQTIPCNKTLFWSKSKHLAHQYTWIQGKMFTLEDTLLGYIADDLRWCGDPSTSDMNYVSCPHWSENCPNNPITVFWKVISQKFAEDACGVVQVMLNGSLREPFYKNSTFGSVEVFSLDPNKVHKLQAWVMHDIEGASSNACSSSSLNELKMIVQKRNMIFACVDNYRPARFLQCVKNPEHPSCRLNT
Procedure: FIGS. 3A-3B show the effect of forebrain ischemia and nicotinamide mononucleotide administration on tissue NAD(H) levels. Mice were subjected to 10 min transient forebrain ischemia and allowed to recover for 24 h. After decapitation their brains were removed, the designated regions dissected and frozen in liquid nitrogen. One group of animals received nicotinamide mononucleotide at 1 hour of recovery. The NAD content was determined following perchloric acid extraction and utilized a coupled fluorometric cycling enzymatic assay (FIG. 3A). There is significant loss of NAD^+ in striatum, CA1, and DG regions. *p<0.05. […] Black: sham; white: ischemia; gray: NMN treatment. FIG. 3B: Effect of ischemia on CD38 activity. Brains of sham operated animals or animals subjected to 10 min of forebrain ischemia and 24 h of recovery were used for dissection of designated brain regions and homogenized. The CD38 enzyme activity was determined using 1-etheno-NAD that, when hydrolyzed by CD38, generates a fluorescent product. The rate of fluorescence increase corresponds to the CD38 enzyme activity. […]
Since nicotinamide mononucleotide is inhibiting the CD38 NAD^+ glycohydrolase activity, the activity of CD38 in post-ischemic tissue was assessed. The NAD^+ glycohydrolase activity was measured by monitoring the enhancement in fluorescence emission caused by the hydrolysis of 1-etheno-NAD (eNAD) (9). […]

SMILES: NC(=O)c1ccc[n+]([C@@H]2O[C@H](COP(=O)([O-])O)[C@@H](O)[C@H]2O)c1 [nicotinamide mononucleotide]
- ischemic cell death / brain damage in the CA1 sector of the hippocampus ([1]; 10 min forebrain ischemia, NMN 500 mg/kg at 1 hour of reperfusion, 5 days of recovery): almost completely ameliorated; also recorded: markedly ameliorates ischemic brain damage; also recorded: almost completely eliminate the ischemic brain damage; also recorded: dramatic amelioration of cell death; also recorded: significant protection
- ischemic cell death / brain damage in the CA1 sector of the hippocampus ([1]; 10 min forebrain ischemia, NMN 500 mg/kg at 1 hour of reperfusion, 5 days of recovery, listed as NMN): Dramatic reduction of ischemia-induced brain damage
- animals that did not show any injured neurons ([1]; 10 min forebrain ischemia, NMN 500 mg/kg at 1 hour of reperfusion, 5 days of recovery, n=6): Five of 6
- percentage of uninjured neurons in the CA1 sector vs vehicle-treated wild type mice ([1]; 10 min global cerebral ischemia, NMN 1000 mg/kg IP at start of reperfusion, 6 days of recovery): significantly greater
- eNAD hydrolysis (NAD+ glycohydrolase activity) in brain tissue homogenate [2]: completely inhibited; also recorded: prevents tissue NAD^+ degradation
